These results are taken from PubChem BioAssay (NCI).

Each structure is given as a SMILES string.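 Following 48 hours of exposure in 96-well plates, responses at five concentrations were used to interpolate endpoints linearly. At the GI50, growth is halved. TGI: concentration producing complete growth inhibition.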

Some test systems named below: MDA-N; DMS 114 small cell lung; HOP-18 NSCLC; M19-MEL melanoma; DLD-1 colon; RXF-631 renal; SNB-78 CNS; KM20L2 colon; XF 498 CNS.
Common to all, as to assay: NCI anticancer screen, dose series, 48 h

With `C/C=C(\C)C(=O)OC1/C=C(\C)CC/C=C(\C)CC2OC(=O)C(C)(OC(C)=O)C12` (centres undefined), in the test with MDA-N, the TGI was above 100 µM.

On to `CC1=CCCC2C(C=O)(C1)CC(C)C2(CO)CC/C(=C/CO)CO` (centres undefined), for which the TGI in the test with DMS 114 small cell lung, in the test on HOP-18 NSCLC, with M19-MEL melanoma, in the test on DLD-1 colon, in the test on RXF-631 renal and with SNB-78 CNS was above 100 µM throughout.

In turn, `C=C1C(=O)O[C@H]2C[C@@H]1C(=O)CC(C)CCCC(C)=CCC[C@@]2(C)O` (some centres undefined) showed a TGI in the test on MDA-N above 25 µM.

Consider `CC1c2[nH]c3ccccc3c2CCN1O` (centres undefined), for which the TGI with DMS 114 small cell lung, in the test with HOP-18 NSCLC, in the test with M19-MEL melanoma, with DLD-1 colon, with KM20L2 colon and with RXF-631 renal was above 100 µM each time. Moreover, the TGI in the test on SNB-78 CNS is above 100 µM.

`C[C@]12C[C@H](O)[C@H]3[C@@H](CCC4=CC(=O)CC[C@@]43C)[C@@H]1CC[C@@H]2c1csc(-c2ccccc2)n1`: the TGI in the test on MDA-N was above 100 µM.

On to `C=C1C(OC(C)=O)CC(OC(C)=O)C2(C)C(OC(C)=O)C(OC(C)=O)C3=C(C)C(OC(=O)/C=C/c4ccccc4)CC(C(OC(C)=O)C12)C3(C)C` (centres undefined), for which the TGI in the test with DMS 114 small cell lung, in the test on HOP-18 NSCLC, with M19-MEL melanoma, with DLD-1 colon, with KM20L2 colon and with RXF-631 renal was above 100 µM throughout. Also, the TGI with SNB-78 CNS is above 100 µM.

Turning to `c1ccc(OC2=NC3=S(S2)SC(Oc2ccccc2)=N3)cc1`, the TGI in the test on DMS 114 small cell lung was 41 µM; in the test with XF 498 CNS, 32 µM; in the test on M19-MEL melanoma, 34.7 µM; with DLD-1 colon it was 35 µM; in the test with KM20L2 colon, 45 µM; with RXF-631 renal, 52.1 µM. The same compound came in with a TGI in the test on SNB-78 CNS of 48.1 µM.

For `COC(=O)N/N=C(\C)CC(=O)Nc1ccc(Cl)cc1`, the TGI in the test on DMS 114 small cell lung, with XF 498 CNS, in the test with M19-MEL melanoma, in the test with DLD-1 colon, with KM20L2 colon and in the test with RXF-631 renal was above 100 µM each time. In the test on SNB-78 CNS, the TGI was above 100 µM.

In the test on MDA-N, `Nc1ccc(/C=C/c2ccc3cccnc3c2)cc1` had a TGI above 100 µM.

For `CC1=NOC(=O)/C1=C/c1ccc2c(c1)OCO2`, the TGI with MDA-N amounted to 85.7 µM.

Turning to `CCC1=C(CC2NCCc3ccccc32)CC2c3cc(OC)c(OC)cc3CCN2C1` (centres undefined), the TGI in the test with XF 498 CNS was 13 µM; in the test with MDA-N it was 8.25 µM; in the test with M19-MEL melanoma it was 29.5 µM; in the test on DLD-1 colon, above 100 µM; with KM20L2 colon, 26.5 µM; in the test on RXF-631 renal, 4.44 µM. The TGI in the test on SNB-78 CNS turned out to be 6.77 µM.

For the compound `C[C@H]1C=C2C(=O)O[C@H]3CC[C@@H](C1)[C@@]23O`, the TGI in the test on DMS 114 small cell lung came out at 8.69 µM; in the test with HOP-18 NSCLC, 13.4 µM; in the test on M19-MEL melanoma it was 15.1 µM; with DLD-1 colon, 10.7 µM; in the test on KM20L2 colon it was 16.2 µM; in the test with SNB-78 CNS it was 9.94 µM.

Consider `COc1cc(C(=O)c2cocc2C(=O)c2ccc3c(c2)OCO3)cc(OC)c1OC`, for which the TGI in the test on DMS 114 small cell lung is above 100 µM; in the test on XF 498 CNS, 32.1 µM; in the test with HOP-18 NSCLC, above 100 µM; in the test with MDA-N, 0.311 µM; with M19-MEL melanoma, above 100 µM; with DLD-1 colon, above 100 µM.

Take `O=C1NC2C(O)CCCCC2C12CCCCC2` (centres undefined): the TGI in the test with DMS 114 small cell lung, with XF 498 CNS, with HOP-18 NSCLC, in the test on M19-MEL melanoma, in the test on DLD-1 colon and in the test on RXF-631 renal was above 100 µM throughout. This compound also had a TGI in the test with SNB-78 CNS above 100 µM.

Take `CC(SCc1ccccc1)C(=O)O` (centres undefined): the TGI with MDA-N was above 100 µM.

For `O=c1/c(=N\Nc2ccccc2)c2cccc3ccc4cccc1c4c32`, in the test on MDA-N, the TGI is above 100 µM.

Consider `CC[PH+](CC)CC.[Cl][Au]`, for which the GI50 with XF 498 CNS was 1.37 µM; in the test on HOP-18 NSCLC, 1.64 µM; with M19-MEL melanoma, 1.08 µM; with DLD-1 colon, 1.28 µM; in the test with KM20L2 colon, 4.25 µM; in the test on SNB-78 CNS, 1.65 µM. The TGI came out at 2.67 µM with XF 498 CNS; 3 µM in the test on HOP-18 NSCLC; 6.56 µM with M19-MEL melanoma; 2.93 µM with DLD-1 colon; 8.73 µM with KM20L2 colon; 5.93 µM in the test with SNB-78 CNS.

For `O=C([O-])CC(=O)[O-].[NH-][C@@H]1CCCC[C@H]1[NH-].[Pt+4]`, the GI50 with MDA-N is 19.9 µM; in the test on M19-MEL melanoma, 14.3 µM; in the test with SNB-78 CNS, above 100 µM. Further, the TGI with MDA-N, in the test on M19-MEL melanoma, in the test on KM20L2 colon and in the test with SNB-78 CNS was above 100 µM throughout.

On to `CC(=O)[CH-]C(=O)c1ccccc1.CC(=O)[CH-]C(=O)c1ccccc1.[O-]c1ccc2c(c1)OCO2.[O-]c1ccc2c(c1)OCO2.[Ti+4]`, for which the GI50 in the test with HOP-18 NSCLC is 37.7 µM; in the test on M19-MEL melanoma, 21.9 µM; with DLD-1 colon, 38.3 µM; with KM20L2 colon, 67.9 µM. For the same compound, the TGI in the test with HOP-18 NSCLC was above 100 µM; in the test on M19-MEL melanoma it was 54.5 µM; in the test on DLD-1 colon, above 100 µM; in the test on KM20L2 colon, above 100 µM.

`CCOC(=O)/C=C/c1cccc(F)c1` returned a TGI with MDA-N above 100 µM.

Regarding `Nc1c2ccccc2nc2c(C(=O)Nc3ccc(S(N)(=O)=O)cc3)cccc12`, the TGI in the test on DMS 114 small cell lung, in the test with XF 498 CNS, with M19-MEL melanoma, in the test with DLD-1 colon, in the test on KM20L2 colon and in the test with SNB-78 CNS was above 100 µM each time.

As for `CCC[CH2][Sn]1([CH2]CCC)[S]CC[N]1S(=O)(=O)c1ccc(C)cc1`, the GI50 with DMS 114 small cell lung was 0.659 µM; in the test on M19-MEL melanoma it was 1.32 µM; in the test with DLD-1 colon it was 1.58 µM; in the test on KM20L2 colon it was 2.27 µM. Besides, the TGI with DMS 114 small cell lung stood at 2.09 µM; in the test on M19-MEL melanoma, 3.03 µM; in the test with DLD-1 colon, 2.99 µM; in the test on KM20L2 colon, 4.46 µM.
